For data set [1] the following is noted: at 20° C.; cited from earlier work.
The nature of data set [2]: Solubilization of active in 3 wt % polymer solution (high-throughput robot, UV/VIS). The class given is physicochemical. The procedure:
Solubilization measurements were carried out with a highthroughput screening robot. This setup dosed 10 mg solid active and […] of the respective 3 wt % liquid polymer solution (in Cl-PAC water D) into wells on a micro titer plate. After the addition of stirring bars and 24 hours incubation time the samples were filtrated via polypropylene filters in order to separate dissolved active and its solid formatted. The amount of solubilized active was determined via UV/VIS spectroscopy.

Converted amounts (≈) assume the structure as drawn.

The values that follow come from patent publication US20160262394A1, “COMPOSITION COMPRISING AN ACTIVE AND A GRAFT COPOLYMER MADE OF N-VINYLLACTAM, VINYL ESTER, AND AN ALCOHOL ALKOXYLATE” (BASF SE, priority 2013, published 2016).

Consider `Cn1cc(C(=O)Nc2ccccc2-c2cc(F)c(F)c(F)c2)c(C(F)F)n1` [fluxapyroxad], for which, in data set [1], the water solubility is 4 µg/mL (≈ 10.5 µM). In addition, the “Solubility of Xemium ® (fluxapyroxad)” value in data set [2] (Active without polymer) is given as 10 ppm. Take `N#Cc1nn(-c2c(Cl)cc(C(F)(F)F)cc2Cl)c(N)c1[S+]([O-])C(F)(F)F` (centres unmarked) [fipronil]: in data set [2], the Solubility of fipronil is on record as 12 ppm. With `NC(=O)N1c2ccccc2C=Cc2ccccc21` [cabamazepine], the Solubility of cabamazepine in data set [2] (Active without polymer) amounted to 181 ppm. Turning to `CC(O)(Cn1cncn1)c1ccc(Oc2ccc(Cl)cc2)cc1C(F)(F)F` (centres unmarked) [2-[4-(4-chlorophenoxy)-2-(trifluoromethyl)phenyl]-1-(1H-1,2,4-triazol-1-yl)propan-2-ol], the “Solubility of the triazole fungicide 2-[4-(4-chlorophenoxy)-2-(trifluoromethyl)phenyl]-1-(1H-1,2,4-triazol-1-yl)propan-2-ol” value in data set [2] (Active without polymer) is recorded as 15 ppm.
